Data on twelve molecules can be found in patent US20260070945A1, “MACROCYCLIC IMMUNOMODULATORS” (Bristol-Myers Squibb Company, priority 2022, published 2026).

Where a SMILES comes first, the peptide text is derived from it. Bridges are numbered along the chain shown (N, C = ends). [ ]: non-standard residue; d: D form. The star is where a group is joined. Trp(1-CH2COOH) = N[C@@H](Cc1cn(CC(=O)O)c2ccccc12)C(=O)O; Phe(4-COOH) = N[C@@H](Cc1ccc(C(=O)O)cc1)C(=O)O; Bip = N[C@@H](Cc1ccc(-c2ccccc2)cc1)C(=O)O; Phe(3-CN) = N#Cc1cccc(C[C@H](N)C(=O)O)c1; Phe(4-NH2) = Nc1ccc(C[C@H](N)C(=O)O)cc1; Phe(3-F) = N[C@@H](Cc1cccc(F)c1)C(=O)O; Phe(3-Me) = Cc1cccc(C[C@H](N)C(=O)O)c1; Val(3-OH) = CC(C)(O)[C@H](N)C(=O)O; Hexyloxycarbonyl = CCCCCCOC(=O)*; 3Pal = N[C@@H](Cc1cccnc1)C(=O)O; 4Pal = N[C@@H](Cc1ccncc1)C(=O)O; Cha = N[C@@H](CC1CCCCC1)C(=O)O; Carboxymethyl = O=C(O)C*; NMeA = CN[C@@H](C)C(=O)O; Orn = NCCC[C@H](N)C(=O)O; Aun = NCCCCCCCCCCC(=O)O; Dab = NCC[C@H](N)C(=O)O; Abu = CC[C@H](N)C(=O)O; Dap = NC[C@H](N)C(=O)O; AEEA = NCCOCCOCC(=O)O

The target of the test is T1, PD-1/PD-L1 interaction (PE-labeled human PD-L1-Ig binding to Jurkat cell line over-expressing human PD-1) (Homo sapiens, UniProt Q15116).
T1 construct: expressed in transfected cells; host or cells: Jurkat
T1 sequence (Q15116 25-288): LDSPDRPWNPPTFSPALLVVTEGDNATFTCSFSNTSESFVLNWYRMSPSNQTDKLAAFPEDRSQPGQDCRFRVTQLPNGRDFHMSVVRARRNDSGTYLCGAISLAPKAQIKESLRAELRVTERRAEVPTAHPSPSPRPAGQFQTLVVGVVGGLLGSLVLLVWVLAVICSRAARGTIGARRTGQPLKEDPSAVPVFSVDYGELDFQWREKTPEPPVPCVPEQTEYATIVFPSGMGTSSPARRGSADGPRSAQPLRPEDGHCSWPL
Put plainly: Jurkat-PD-1 Cell Binding High-Content Screening Assay (CBA). To be noted: Jurkat-hPD-1 cells, PE-labeled PD-L1-Ig 20 nM final; read-out: Jurkat HPD1 PDL1 IC50. The essentials:
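Jurkat cells overexpressing human PD-1 (8×10^3/well, DMEM + 10% FCS) preincubated with compound 2 h at 37 °C, then PE-labelled human PD-L1-Ig (20 nM final) for 1 h. Cells fixed in paraformaldehyde with Hoechst 33342; bound PD-L1 quantified by high-content imaging.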
As for `Cc1cccc(C[C@@H]2NC(=O)[C@H](CC(=O)O)NC(=O)[C@H](Cc3cn(CC(=O)O)c4ccccc34)NC(=O)[C@H]([C@@H](C)O)NC(=O)CSC[C@@H](C(=O)N[C@@H](CCN)C(=O)NCCCCCCCCCCC(=O)O)NC(=O)[C@H]([C@@H](C)O)NC(=O)[C@H](C(C)C)NC(=O)[C@H](CC3CCCCC3)NC(=O)[C@H](CCN)NC(=O)[C@@H](CC(C)C)NC(=O)[C@H](C)N(C)C(=O)[C@H](Cc3ccc(OCC(=O)O)cc3)NC(=O)[C@H](Cc3ccc(-c4ccccc4)cc3)NC(=O)[C@H](Cc3ccc(OCC(=O)O)cc3)NC2=O)c1` [Example 1304] ({CH2CO}-T[Trp(1-CH2COOH)]D[Phe(3-Me)]Y(Carboxymethyl)[Bip]Y(Carboxymethyl)[NMeA][dL][Dab][Cha]VTC[Dab][Aun]-OH; thioether N-14), the IC50 was 44.6 nM.

For `Cc1cccc(C[C@@H]2NC(=O)[C@H](CC(=O)O)NC(=O)[C@H](Cc3ccc(OCC(=O)O)cc3)NC(=O)[C@H](CCN)NC(=O)CSC[C@@H](C(=O)N[C@@H](CCN)C(=O)NCCCCCCCCCCC(=O)O)NC(=O)[C@H](CO)NC(=O)[C@H](C(C)(C)O)NC(=O)[C@H](CC3CCCCC3)NC(=O)[C@H](CCN)NC(=O)[C@@H](CC(C)C)NC(=O)[C@H](C)N(C)C(=O)[C@H](Cc3ccc(OCC(=O)O)cc3)NC(=O)[C@H](Cc3ccc(-c4ccccc4)cc3)NC(=O)[C@H](Cc3cccnc3)NC2=O)c1` [Example 1305] ({CH2CO}-[Dab]Y(Carboxymethyl)D[Phe(3-Me)][3Pal][Bip]Y(Carboxymethyl)[NMeA][dL][Dab][Cha][Val(3-OH)]SC[Dab][Aun]-OH; thioether N-14), the concentration for half-maximal inhibition (IC50) was determined as 24.8 nM.

Take `Cc1cccc(C[C@@H]2NC(=O)[C@H](CC(=O)O)NC(=O)[C@H](Cc3ccc(OCC(=O)O)cc3)NC(=O)[C@H](CCN)NC(=O)CSC[C@@H](C(=O)N[C@@H](CCN)C(=O)NCCCCCCCCCCC(=O)O)NC(=O)[C@H](CO)NC(=O)[C@H](C(C)(C)O)NC(=O)[C@H](CC3CCCCC3)NC(=O)[C@H](CCN)NC(=O)[C@@H](CC(C)C)NC(=O)[C@H](C)N(C)C(=O)[C@H](Cc3ccc(OCC(=O)O)cc3)NC(=O)[C@H](Cc3ccc(-c4ccccc4)cc3)NC(=O)[C@H](Cc3cccc(C#N)c3)NC2=O)c1` [Example 1306] ({CH2CO}-[Dab]Y(Carboxymethyl)D[Phe(3-Me)][Phe(3-CN)][Bip]Y(Carboxymethyl)[NMeA][dL][Dab][Cha][Val(3-OH)]SC[Dab][Aun]-OH; thioether N-14): the half-maximal inhibitory concentration (IC50) turned out to be 23.9 nM.

As for `Cc1cccc(C[C@@H]2NC(=O)[C@H](CC(=O)O)NC(=O)[C@H](Cc3ccc(OCC(=O)O)cc3)NC(=O)[C@H](CCN)NC(=O)CSC[C@@H](C(=O)N[C@@H](CCN)C(=O)NCCCCCCCCCCC(=O)O)NC(=O)[C@H](CO)NC(=O)[C@H](C(C)(C)O)NC(=O)[C@H](CC3CCCCC3)NC(=O)[C@H](CCN)NC(=O)[C@@H](CC(C)C)NC(=O)[C@H](C)N(C)C(=O)[C@H](Cc3ccc(OCC(=O)O)cc3)NC(=O)[C@H](Cc3ccc(-c4ccccc4)cc3)NC(=O)[C@H](Cc3ccc(N)cc3)NC2=O)c1` [Example 1307] ({CH2CO}-[Dab]Y(Carboxymethyl)D[Phe(3-Me)][Phe(4-NH2)][Bip]Y(Carboxymethyl)[NMeA][dL][Dab][Cha][Val(3-OH)]SC[Dab][Aun]-OH; thioether N-14), the concentration for half-maximal inhibition (IC50) was 41.3 nM.

As for `CC[C@@H]1NC(=O)[C@H](Cc2cccc(C)c2)NC(=O)[C@H](CC(=O)O)NC(=O)[C@H](Cc2ccc(OCC(=O)O)cc2)NC(=O)[C@H](CCN)NC(=O)CSC[C@@H](C(=O)N[C@@H](CCN)C(=O)NCCCCCCCCCCC(=O)O)NC(=O)[C@H](CO)NC(=O)[C@H](C(C)(C)O)NC(=O)[C@H](CC2CCCCC2)NC(=O)[C@H](CCN)NC(=O)[C@@H](CC(C)C)NC(=O)[C@H](C)N(C)C(=O)[C@H](Cc2ccc(OCC(=O)O)cc2)NC(=O)[C@H](Cc2ccc(-c3ccccc3)cc2)NC1=O` [Example 1308] ({CH2CO}-[Dab]Y(Carboxymethyl)D[Phe(3-Me)][Abu][Bip]Y(Carboxymethyl)[NMeA][dL][Dab][Cha][Val(3-OH)]SC[Dab][Aun]-OH; thioether N-14), the concentration for half-maximal inhibition (IC50) amounted to 7 nM.

Consider `Cc1cccc(C[C@@H]2NC(=O)[C@H](CC(=O)O)NC(=O)[C@H](Cc3ccc(C(=O)O)cc3)NC(=O)[C@H](Cc3ccncc3)NC(=O)CSC[C@@H](C(=O)N[C@@H](CCN)C(=O)NCCCCCCCCCCC(=O)O)NC(=O)[C@H](CO)NC(=O)[C@H](C(C)(C)O)NC(=O)[C@H](CC3CCCCC3)NC(=O)[C@H](CCN)NC(=O)[C@@H](CC(C)C)NC(=O)[C@H](C)N(C)C(=O)[C@H](Cc3ccc(OCC(=O)O)cc3)NC(=O)[C@H](Cc3ccc(-c4ccccc4)cc3)NC(=O)[C@H](Cc3cccc(F)c3)NC2=O)c1` [Example 1309] ({CH2CO}-[4Pal][Phe(4-COOH)]D[Phe(3-Me)][Phe(3-F)][Bip]Y(Carboxymethyl)[NMeA][dL][Dab][Cha][Val(3-OH)]SC[Dab][Aun]-OH; thioether N-14), for which the IC50 stood at 12.7 nM.

Turning to `Cc1cccc(C[C@@H]2NC(=O)[C@H](CC(=O)O)NC(=O)[C@H](Cc3ccc(OCC(=O)O)cc3)NC(=O)[C@H](CCN)NC(=O)CSC[C@@H](C(=O)N[C@@H](CCN)C(=O)NCCCCCCCCCCC(=O)O)NC(=O)[C@H](CO)NC(=O)[C@H](C(C)(C)O)NC(=O)[C@H](CC3CCCCC3)NC(=O)[C@H](CCN)NC(=O)[C@@H](CC(C)C)NC(=O)[C@H](C)N(C)C(=O)[C@H](Cc3ccc(OCC(=O)O)cc3)NC(=O)[C@H](Cc3ccc(-c4ccccc4)cc3)NC(=O)[C@H](Cc3cccc(F)c3)NC2=O)c1` [Example 1310] ({CH2CO}-[Dab]Y(Carboxymethyl)D[Phe(3-Me)][Phe(3-F)][Bip]Y(Carboxymethyl)[NMeA][dL][Dab][Cha][Val(3-OH)]SC[Dab][Aun]-OH; thioether N-14), the concentration for half-maximal inhibition (IC50) worked out at 30.6 nM.

As to `CCCCCCOC(=O)NCC[C@@H]1NC(=O)[C@@H](CC(C)C)NC(=O)[C@H](C)N(C)C(=O)[C@H](Cc2ccc(OCC(=O)O)cc2)NC(=O)[C@H](Cc2ccc(-c3ccccc3)cc2)NC(=O)[C@H](Cc2ccc(OCC(=O)O)cc2)NC(=O)[C@H](Cc2cccc(C)c2)NC(=O)[C@H](CC(=O)O)NC(=O)[C@H](Cc2ccc(OCC(=O)O)cc2)NC(=O)[C@H]([C@@H](C)O)NC(=O)CSC[C@@H](C(=O)N[C@@H](CCN)C(=O)NCCOCCOCC(=O)NCCCCCCCCCCC(=O)O)NC(=O)[C@H](CCC(=O)O)NC(=O)[C@H](C(C)C)NC(=O)[C@H](CC2CCCCC2)NC1=O` [Example 1311] ({CH2CO}-TY(Carboxymethyl)D[Phe(3-Me)]Y(Carboxymethyl)[Bip]Y(Carboxymethyl)[NMeA][dL][Dab](Hexyloxycarbonyl)[Cha]VEC[Dab][AEEA][Aun]-OH; thioether N-14), the IC50 came out at 244 nM.

Consider `Cc1cccc(C[C@@H]2NC(=O)[C@H](CC(=O)O)NC(=O)[C@H](Cc3ccc(OCC(=O)O)cc3)NC(=O)[C@H](CN)NC(=O)CSC[C@@H](C(=O)N[C@@H](CCN)C(=O)NCCOCCOCC(=O)NCCCCCCCCCCC(=O)O)NC(=O)[C@H](CCCN)NC(=O)[C@H](C(C)C)NC(=O)[C@H](CC3CCCCC3)NC(=O)[C@H](CCN)NC(=O)[C@@H](CC(C)C)NC(=O)[C@H](C)N(C)C(=O)[C@H](Cc3ccc(O)cc3)NC(=O)[C@H](Cc3ccc(-c4ccccc4)cc3)NC(=O)[C@H](Cc3ccc(O)cc3)NC2=O)c1` [Example 1312] ({CH2CO}-[Dap]Y(Carboxymethyl)D[Phe(3-Me)]Y[Bip]Y[NMeA][dL][Dab][Cha]V[Orn]C[Dab][AEEA][Aun]-OH; thioether N-14), for which the 50% inhibitory concentration (IC50) was found to be 27.4 nM.

Regarding `Cc1cccc(C[C@@H]2NC(=O)[C@H](CC(=O)O)NC(=O)[C@H](Cc3ccc(OCC(=O)O)cc3)NC(=O)[C@H](CN)NC(=O)CSC[C@@H](C(=O)N[C@@H](CCN)C(=O)NCCCCCCCCCCC(=O)O)NC(=O)[C@H](CCCN)NC(=O)[C@H](C(C)C)NC(=O)[C@H](CC3CCCCC3)NC(=O)[C@H](CCN)NC(=O)[C@@H](CC(C)C)NC(=O)[C@H](C)N(C)C(=O)[C@H](Cc3ccc(O)cc3)NC(=O)[C@H](Cc3ccc(-c4ccccc4)cc3)NC(=O)[C@H](Cc3ccc(O)cc3)NC2=O)c1` [Example 1313] ({CH2CO}-[Dap]Y(Carboxymethyl)D[Phe(3-Me)]Y[Bip]Y[NMeA][dL][Dab][Cha]V[Orn]C[Dab][Aun]-OH; thioether N-14), the half-inhibitory concentration (IC50) came to 28.2 nM.

Turning to `Cc1cccc(C[C@@H]2NC(=O)[C@H](CC(=O)O)NC(=O)[C@H](Cc3ccc(OCC(=O)O)cc3)NC(=O)[C@H](CN)NC(=O)CSC[C@@H](C(=O)N[C@@H](CCN)C(=O)NCCOCCOCC(=O)NCCCCCCCCCCC(=O)O)NC(=O)[C@H](CCCN)NC(=O)[C@H](C(C)C)NC(=O)[C@H](CC3CCCCC3)NC(=O)[C@H](CCN)NC(=O)[C@@H](CC(C)C)NC(=O)[C@H](C)N(C)C(=O)[C@H](Cc3ccc(O)cc3)NC(=O)[C@H](Cc3ccc(-c4ccccc4)cc3)NC(=O)[C@H](C(C)C)NC2=O)c1` [Example 1314] ({CH2CO}-[Dap]Y(Carboxymethyl)D[Phe(3-Me)]V[Bip]Y[NMeA][dL][Dab][Cha]V[Orn]C[Dab][AEEA][Aun]-OH; thioether N-14), the IC50 worked out at 7 nM.

With `Cc1cccc(C[C@@H]2NC(=O)[C@H](CC(=O)O)NC(=O)[C@H](Cc3ccc(OCC(=O)O)cc3)NC(=O)[C@H](CN)NC(=O)CSC[C@@H](C(=O)N[C@@H](CCN)C(=O)NCCCCCCCCCCC(=O)O)NC(=O)[C@H](CCCN)NC(=O)[C@H](C(C)C)NC(=O)[C@H](CC3CCCCC3)NC(=O)[C@H](CCN)NC(=O)[C@@H](CC(C)C)NC(=O)[C@H](C)N(C)C(=O)[C@H](Cc3ccc(O)cc3)NC(=O)[C@H](Cc3ccc(-c4ccccc4)cc3)NC(=O)[C@H](C(C)C)NC2=O)c1` [Example 1315] ({CH2CO}-[Dap]Y(Carboxymethyl)D[Phe(3-Me)]V[Bip]Y[NMeA][dL][Dab][Cha]V[Orn]C[Dab][Aun]-OH; thioether N-14), the 50% inhibitory concentration (IC50) was 9.9 nM.

By IC50 is commonly meant the point on the concentration scale where inhibition reaches its midpoint.
